Laboratory results: patent publication US12129237B2, “Substituted diaminocarboxamide and diaminocarbonitrile pyrimidines, compositions thereof, and methods of treatment therewith” (SIGNAL PHARMACEUTICALS, LLC, priority 2011, dated 2024)
Read-outs that look alike come from different tables or passages of the source.

Molecular target: T1, JNK1 (Homo sapiens, UniProt P45983)
T1 construct: purchased Carna Biosciences
Assay: JNK1 biochemical assays (one or more of: time resolved fluorescence, Z'-LYTE Cascade, radioactive)

[1] = one or more of the JNK1 biochemical assays, read-out: Act. Level (JNK1 IC50 activity level)
[2] = tested in one or more of the JNK1 biochemical assays, read-out: Act. Level (JNK1 biochemical assay IC50 activity level)

T1 sequence (P45983 whole entry): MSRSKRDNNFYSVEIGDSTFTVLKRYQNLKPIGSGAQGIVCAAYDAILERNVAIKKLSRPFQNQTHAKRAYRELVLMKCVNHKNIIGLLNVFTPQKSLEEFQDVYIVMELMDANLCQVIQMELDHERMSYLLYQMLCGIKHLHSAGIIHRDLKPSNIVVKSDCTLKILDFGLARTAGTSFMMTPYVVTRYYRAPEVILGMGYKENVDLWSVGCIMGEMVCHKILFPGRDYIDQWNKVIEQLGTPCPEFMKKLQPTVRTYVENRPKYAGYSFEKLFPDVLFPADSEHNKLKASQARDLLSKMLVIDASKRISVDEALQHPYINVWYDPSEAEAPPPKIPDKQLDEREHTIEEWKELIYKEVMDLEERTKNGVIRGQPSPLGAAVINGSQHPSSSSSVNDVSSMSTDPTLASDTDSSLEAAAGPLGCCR

Structure (SMILES) | IC50 [1] | IC50 [2]
C[C@@H]1CC[C@@H](Nc2nc(NC34CC(C(C)(C)C)(C3)C4)ncc2C(N)=O)C[C@H]1O [Example 489, 2-(3-tert-butylbicyclo[1.1.1]pentan-1-ylamino)-4-((1R,3R,4R)-3-hydroxy-4-methylcyclohexylamino)pyrimidine-5-carboxamide] | < 200 nM | –
CC12CC(Nc3nc(NC45CCC(O)(CC4)C5)ncc3C(N)=O)(C1)C2 [Example 490, 2-(4-hydroxybicyclo[2.2.1]heptan-1-ylamino)-4-(3-methylbicyclo[1.1.1]pentan-1-ylamino)pyrimidine-5-carboxamide] | < 200 nM | –
C[C@@H]1CC[C@@H](Nc2nc(N[C@H]3CC[C@H](OC4CC4)CC3)ncc2C(N)=O)C[C@H]1O [Example 492, 2-((1r,4R)-4-cyclopropoxycyclohexylamino)-4-((1R,3R,4R)-3-hydroxy-4-methylcyclohexylamino)pyrimidine-5-carboxamide] | < 200 nM | –
CC(C)(C)C12CC(Nc3nc(N[C@H]4CC[C@H](O)CC4)ncc3C(N)=O)(C1)C2 [Example 493, 4-(3-tert-butylbicyclo[1.1.1]pentan-1-ylamino)-2-((1r,4r)-4-hydroxycyclohexylamino)pyrimidine-5-carboxamide] | < 200 nM | –
CCNc1ncc(C(N)=O)c(N[C@@H]2CC[C@@H](C)[C@H](O)C2)n1 [Example 494, 2-(ethylamino)-4-((1R,3R,4R)-3-hydroxy-4-methylcyclohexylamino)pyrimidine-5-carboxamide] | < 200 nM | –
CC(C)CNc1ncc(C(N)=O)c(N[C@@H]2CCC[C@H](O)C2)n1 [Example 495, 4-((1R,3S)-3-hydroxycyclohexylamino)-2-(isobutylamino)pyrimidine-5-carboxamide] | < 200 nM | –
CC[C@H](C)Nc1ncc(C(N)=O)c(N[C@@H]2CCC[C@H](O)C2)n1 [Example 496, 2-(sec-butylamino)-4-((1R,3S)-3-hydroxycyclohexylamino)pyrimidine-5-carboxamide] | < 200 nM | –
CC[C@@H](C)Nc1ncc(C(N)=O)c(N[C@@H]2CCC[C@H](O)C2)n1 [Example 497, 2-(sec-butylamino)-4-((1R,3S)-3-hydroxycyclohexylamino)pyrimidine-5-carboxamide] | < 200 nM | –
CCC(CC)Nc1ncc(C(N)=O)c(N[C@@H]2CCC[C@H](O)C2)n1 [Example 498, 4-((1R,3S)-3-hydroxycyclohexylamino)-2-(pentan-3-ylamino)pyrimidine-5-carboxamide] | < 200 nM | –
CC(C)Nc1nc(N[C@H]2CC[C@H](OCC(F)(F)F)CC2)ncc1C(N)=O [Example A-1, 4-(isopropylamino)-2-((1r,4r)-4-(2,2,2-trifluoroethoxy)cyclohexylamino)pyrimidine-5-carboxamide] | – | < 200 nM
CC(C)Nc1nc(NC2CCC(F)(F)CC2)ncc1C(N)=O [Example A-3, 2-(4,4-difluorocyclohexylamino)-4-(isopropylamino)pyrimidine-5-carboxamide] | – | < 200 nM
NC(=O)c1cnc(N[C@H]2CC[C@H](OC(F)F)CC2)nc1N[C@@H]1CCC[C@H]1O [Example A-4, 2-((1r,4R)-4-(difluoromethoxy)cyclohexylamino)-4-((1R,2R)-2-hydroxycyclopentylamino)pyrimidine-5-carboxamide] | – | < 200 nM
NC(=O)c1cnc(NC2CCC(F)(F)CC2)nc1N[C@@H]1CCC[C@H]1O [Example A-5, 2-(4,4-difluorocyclohexylamino)-4-((1R,2R)-2-hydroxycyclopentylamino)pyrimidine-5-carboxamide] | – | < 200 nM
CC(C)Nc1nc(N[C@H]2CC[C@H](C(C)(C)O)CC2)ncc1C(N)=O [Example A-6, 2-((1r,4r)-4-(2-hydroxypropan-2-yl)cyclohexylamino)-4-(isopropylamino)pyrimidine-5-carboxamide] | – | < 200 nM
NC(=O)c1cnc(NC2CCOCC2)nc1N[C@@H]1CCC[C@H]1O [Example A-7, 4-((1R,2R)-2-hydroxycyclopentylamino)-2-(tetrahydro-2H-pyran-4-ylamino)pyrimidine-5-carboxamide] | – | < 200 nM
CC(C)Nc1nc(N[C@H]2CC[C@H](C(=O)N(C)C)CC2)ncc1C(N)=O [Example A-10, 2-((1r,4r)-4-(dimethylcarbamoyl)cyclohexylamino)-4-(isopropylamino)pyrimidine-5-carboxamide] | – | < 200 nM
CC(C)Nc1nc(NC2CCC3(CC2)OCCO3)ncc1C(N)=O [Example A-11, 2-(1,4-dioxaspiro[4.5]decan-8-ylamino)-4-(isopropylamino)pyrimidine-5-carboxamide] | – | 200 to 800 nM
CC(C)Nc1nc(N[C@H]2CC[C@H](CO)CC2)ncc1C(N)=O [Example A-12, 2-((1r,4r)-4-(hydroxymethyl)cyclohexylamino)-4-(isopropylamino)pyrimidine-5-carboxamide] | – | < 200 nM
CO[C@H]1CC[C@H](Nc2ncc(C(N)=O)c(NC3COCC(O)C3)n2)CC1 (stereo partly shown) [Example A-13, 4-(5-hydroxytetrahydro-2H-pyran-3-ylamino)-2-((1r,4r)-4-methoxycyclohexylamino)pyrimidine-5-carboxamide] | – | < 200 nM

Structure (SMILES) | IC50 [1] | IC50 [2]
C[C@]1(O)CC[C@H](Nc2ncc(C(N)=O)c(N[C@@H]3CCC[C@H](O)C3)n2)CC1 [Example A-22, 2-((1r,4R)-4-hydroxy-4-methylcyclohexylamino)-4-((1R,3S)-3-hydroxycyclohexylamino)pyrimidine-5-carboxamide] | – | < 200 nM
CO[C@H]1CC[C@H](Nc2ncc(C(N)=O)c(N[C@H]3CCNC(=O)C3)n2)CC1 [Example A-25, 2-((1r,4S)-4-methoxycyclohexylamino)-4-((S)-2-oxopiperidin-4-ylamino)pyrimidine-5-carboxamide] | – | < 200 nM
CO[C@H]1CC[C@H](Nc2ncc(C(N)=O)c(N[C@@H]3CCNC(=O)C3)n2)CC1 [Example A-26, 2-((1r,4R)-4-methoxycyclohexylamino)-4-((R)-2-oxopiperidin-4-ylamino)pyrimidine-5-carboxamide] | – | 200 to 800 nM
CN(C)C(=O)[C@H]1CC[C@H](Nc2ncc(C(N)=O)c(N[C@@H]3CCC[C@H](O)C3)n2)CC1 [Example A-27, 2-((1r,4R)-4-(dimethylcarbamoyl)cyclohexylamino)-4-((1R,3S)-3-hydroxycyclohexylamino)pyrimidine-5-carboxamide] | – | < 200 nM
CO[C@H]1CC[C@H](Nc2ncc(C(N)=O)c(N[C@H]3CC[C@H](O)CC3)n2)CC1 [Example A-34, 4-((1r,4r)-4-hydroxycyclohexylamino)-2-((1r,4r)-4-methoxycyclohexylamino)pyrimidine-5-carboxamide] | – | < 200 nM
CO[C@H]1CC[C@H](Nc2ncc(C(N)=O)c(NC(C)(C)CCO)n2)CC1 [Example A-35, 4-(4-hydroxy-2-methylbutan-2-ylamino)-2-((1r,4r)-4-methoxycyclohexylamino)pyrimidine-5-carboxamide] | – | < 200 nM
CO[C@H]1CC[C@H](Nc2ncc(C(N)=O)c(N[C@@H]3CCC[C@@H]3CO)n2)CC1 [Example A-36, 4-((1R,2S)-2-(hydroxymethyl)cyclopentylamino)-2-((1r,4R)-4-methoxycyclohexylamino)pyrimidine-5-carboxamide] | – | < 200 nM
CO[C@H]1CC[C@H](Nc2ncc(C(N)=O)c(N[C@H]3CCC[C@H]3CO)n2)CC1 [Example A-37, 4-((1S,2R)-2-(hydroxymethyl)cyclopentylamino)-2-((1r,4S)-4-methoxycyclohexylamino)pyrimidine-5-carboxamide] | – | 200 to 800 nM
CO[C@H]1CC[C@H](Nc2ncc(C(N)=O)c(N[C@H]3CC[C@H](NC(C)=O)CC3)n2)CC1 [Example A-38, 4-((1r,4r)-4-acetamidocyclohexylamino)-2-((1r,4r)-4-methoxycyclohexylamino)pyrimidine-5-carboxamide] | – | < 200 nM
CC(=O)N[C@H]1CC[C@H](Nc2ncc(C(N)=O)c(N[C@@H]3CCC[C@H](O)C3)n2)CC1 [Example A-39, 2-((1r,4R)-4-acetamidocyclohexylamino)-4-((1R,3S)-3-hydroxycyclohexylamino)pyrimidine-5-carboxamide] | – | < 200 nM
CO[C@H]1CC[C@H](Nc2ncc(C(N)=O)c(N[C@@H]3CC[C@H](O)C3)n2)CC1 [Example A-46, 4-((1R,3S)-3-hydroxycyclopentylamino)-2-((1r,4R)-4-methoxycyclohexylamino)pyrimidine-5-carboxamide] | – | < 200 nM
CO[C@H]1CC[C@H](Nc2ncc(C(N)=O)c(N[C@@H]3CCCNC3)n2)CC1 [Example A-47, 2-((1r,4R)-4-methoxycyclohexylamino)-4-((R)-piperidin-3-ylamino)pyrimidine-5-carboxamide] | – | < 200 nM
CO[C@H]1CC[C@H](Nc2ncc(C(N)=O)c(N[C@H]3CCCNC3)n2)CC1 [Example A-48, 2-((1r,4S)-4-methoxycyclohexylamino)-4-((S)-piperidin-3-ylamino)pyrimidine-5-carboxamide] | – | 800 to 1000 nM
CN[C@H]1CC[C@H](Nc2ncc(C(N)=O)c(N[C@@H]3CCC[C@H](O)C3)n2)CC1 [Example A-49, 4-((1R,3S)-3-hydroxycyclohexylamino)-2-((1r,4R)-4-(methylamino)cyclohexylamino)pyrimidine-5-carboxamide] | – | < 200 nM
NC(=O)c1cnc(N[C@@H]2CCCOC2)nc1N[C@@H]1CCC[C@H](O)C1 [Example A-50, 4-((1R,3S)-3-hydroxycyclohexylamino)-2-((R)-tetrahydro-2H-pyran-3-ylamino)pyrimidine-5-carboxamide] | – | < 200 nM
CC(C)Nc1ncc(C(N)=O)c(N[C@@H]2CCC[C@H](O)C2)n1 [Example A-51, 4-((1R,3S)-3-hydroxycyclohexylamino)-2-(isopropylamino)pyrimidine-5-carboxamide] | – | < 200 nM
NC(=O)c1cnc(N[C@H]2CCCOC2)nc1N[C@@H]1CCC[C@H](O)C1 [Example A-52, 4-((1R,3S)-3-hydroxycyclohexylamino)-2-((S)-tetrahydro-2H-pyran-3-ylamino)pyrimidine-5-carboxamide] | – | < 200 nM
CO[C@H]1CC[C@H](Nc2ncc(C(N)=O)c(NC3CCOCC3)n2)CC1 [Example A-55, 2-((1r,4r)-4-methoxycyclohexylamino)-4-(tetrahydro-2H-pyran-4-ylamino)pyrimidine-5-carboxamide] | – | 200 to 800 nM
